Laboratory results taken from ChEMBL document CHEMBL1142824, “Discovery of a novel, potent and selective human beta3-adrenergic receptor agonist” (Bioorg Med Chem Lett, 2005).

Columns and labels:
[1] = target: Beta-3 adrenergic receptor (Homo sapiens, UniProt P13945); assay: Agonistic activity was assessed by measuring cAMP accumulation in CHO cell lines expressing cloned human Beta-3 adrenergic receptor; format: functional, cell-based
[2] = target: Beta-1 adrenergic receptor (Homo sapiens, UniProt P08588)
Beta-1 adrenergic receptor, sequence (P08588 whole entry): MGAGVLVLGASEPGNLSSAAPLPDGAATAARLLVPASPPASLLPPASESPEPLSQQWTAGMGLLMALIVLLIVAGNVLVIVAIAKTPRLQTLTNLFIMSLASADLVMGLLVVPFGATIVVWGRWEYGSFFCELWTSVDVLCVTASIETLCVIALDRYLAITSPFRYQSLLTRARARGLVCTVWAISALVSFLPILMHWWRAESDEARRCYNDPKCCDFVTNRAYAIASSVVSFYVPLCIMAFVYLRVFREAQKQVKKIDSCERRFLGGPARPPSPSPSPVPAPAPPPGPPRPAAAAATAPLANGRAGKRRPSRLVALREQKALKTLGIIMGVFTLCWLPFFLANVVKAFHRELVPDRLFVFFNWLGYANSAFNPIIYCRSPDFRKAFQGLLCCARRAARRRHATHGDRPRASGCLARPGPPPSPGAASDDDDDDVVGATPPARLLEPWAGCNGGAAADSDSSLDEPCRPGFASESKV
Description: Agonistic activity was assessed by measuring cAMP accumulation in CHO cell lines expressing cloned human Beta-1 adrenergic receptor

[3] = Maximum plasma concentration after orally administered dose of 3.2 mg/kg; format: ADME, organism-based; design: dose 3.2 mg/kg, route oral; conditions: rat, po
[4] = Half life of compound after intravenous dose of 0.32 mg/kg; format: ADME, organism-based, Canis lupus familiaris; design: dose 0.32 mg/kg, route intravenous; conditions: dog, in vivo
[5] = Percent bioavailability after intravenous dose of 1 mg/kg; format: ADME, organism-based; conditions: rat, in vivo
[6] = Total clearance rate after intravenous dose of 1 mg/kg; format: ADME, organism-based; design: dose 1 mg/kg, route intravenous; conditions: rat, in vivo, read-out: CLtot
[7] = Maximum plasma concentration after orally administered dose of 0.32 mg/kg; format: ADME, organism-based, Canis lupus familiaris; design: dose 0.32 mg/kg, route oral; conditions: dog, po
[8] = target: Beta-2 adrenergic receptor and beta-3 adrenergic receptor (Homo sapiens) (UniProt P07550+P13945); assay: Ratio of agonistic activity to produce cAMP by stimulating beta-2 and beta-3 adrenergic receptor in chinese hamster ovary cells; format: functional, cell-based
[9] = Area under concentration-time curve after orally administered dose of 3.2 mg/kg; format: ADME, organism-based; design: dose 3.2 mg/kg, route oral; conditions: rat, in vivo, po
[10] = Area under concentration-time curve after orally administered dose of 0.32 mg/kg; format: ADME, organism-based, Canis lupus familiaris; design: dose 0.32 mg/kg, route oral; conditions: dog, in vivo, po
[11] = target: Beta-2 adrenergic receptor (Homo sapiens, UniProt P07550); assay: Agonistic activity was assessed by measuring cAMP accumulation in CHO cell lines expressing cloned human Beta-2 adrenergic receptor; format: functional, cell-based
Beta-2 adrenergic receptor, sequence (P07550 whole entry): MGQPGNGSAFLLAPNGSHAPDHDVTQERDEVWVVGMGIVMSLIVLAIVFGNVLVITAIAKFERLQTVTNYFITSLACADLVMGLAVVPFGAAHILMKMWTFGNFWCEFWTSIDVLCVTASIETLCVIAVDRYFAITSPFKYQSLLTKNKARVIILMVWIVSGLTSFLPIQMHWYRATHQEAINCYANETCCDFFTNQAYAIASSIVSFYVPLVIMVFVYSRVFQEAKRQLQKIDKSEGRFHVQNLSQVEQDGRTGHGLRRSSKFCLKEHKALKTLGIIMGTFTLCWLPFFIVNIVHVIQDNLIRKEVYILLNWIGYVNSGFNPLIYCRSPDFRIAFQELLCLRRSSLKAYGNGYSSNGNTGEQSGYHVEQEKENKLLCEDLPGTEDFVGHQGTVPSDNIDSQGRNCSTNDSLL

[12] = Half life of compound after intravenous dose of 1 mg/kg; format: ADME, organism-based; design: dose 1 mg/kg, route intravenous; conditions: rat, in vivo
[13] = Percent bioavailability after intravenous dose of 0.32 mg/kg; format: ADME, organism-based, Canis lupus familiaris; conditions: dog, in vivo
[14] = Total clearance rate after intravenous dose of 0.32 mg/kg; format: ADME, organism-based, Canis lupus familiaris; design: dose 0.32 mg/kg, route intravenous; conditions: dog, in vivo, read-out: CLtot

Beta-3 adrenergic receptor, sequence (P13945 whole entry): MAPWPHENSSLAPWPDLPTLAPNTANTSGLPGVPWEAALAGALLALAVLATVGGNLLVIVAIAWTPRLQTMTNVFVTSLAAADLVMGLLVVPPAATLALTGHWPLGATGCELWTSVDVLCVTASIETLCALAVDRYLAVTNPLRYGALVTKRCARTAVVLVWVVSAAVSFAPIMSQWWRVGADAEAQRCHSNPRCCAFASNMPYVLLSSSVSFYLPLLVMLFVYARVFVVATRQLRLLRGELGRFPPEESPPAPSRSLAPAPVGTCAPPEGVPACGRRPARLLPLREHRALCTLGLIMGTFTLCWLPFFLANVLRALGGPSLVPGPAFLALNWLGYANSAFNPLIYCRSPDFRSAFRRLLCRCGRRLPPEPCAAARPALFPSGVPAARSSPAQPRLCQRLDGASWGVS

| SMILES | EC50 [1] | EC50 [2] | other results |
| --- | --- | --- | --- |
| O=C(Nc1ccc(C[C@@H](CO)NC[C@H](O)COc2ccccc2)cc1)Nc1cccc([N+](=O)[O-])c1 | 1 nM | 0.9 nM | – |
| COc1ccc(NC(=O)Nc2ccc(C[C@@H](CO)NC[C@H](O)COc3ccccc3)cc2)cc1 | 2.5 nM | 2.2 nM | – |
| CC(C)NC(=O)Nc1ccc(C[C@@H](CO)NC[C@H](O)COc2ccccc2)cc1 | 4.9 nM | 27 nM | – |
| CCCNC(=O)Nc1ccc(C[C@@H](CO)NC[C@H](O)COc2ccccc2)cc1 | 8.3 nM | 51 nM | – |
| O=C(Nc1ccccc1)Nc1ccc(C[C@@H](CO)NC[C@H](O)COc2cccc3[nH]c4ccccc4c23)cc1 | 22 nM | – | – |
| O=C(Nc1ccccc1)Nc1ccc(C[C@@H](CO)NC[C@H](O)c2cccc(Cl)c2)cc1 | 74 nM | – | – |
| O=C(Nc1ccc(C[C@@H](CO)NC[C@H](O)COc2ccccc2)cc1)NC1CCCCC1 | 2.1 nM | 15 nM | – |

Continued, in another order:

| EC50 [1] | EC50 [2] | SMILES | other results |
| --- | --- | --- | --- |
| 1.6 nM | 3.6 nM | O=C(Nc1ccccc1)Nc1ccc(CCNC[C@H](O)COc2ccccc2)cc1 | – |
| 1.5 nM | 1.3 nM | O=C(Nc1ccc(C[C@@H](CO)NC[C@H](O)COc2ccccc2)cc1)Nc1cccc(C(=O)O)c1 | – |
| 0.8 nM | 4 nM | COc1cccc(NC(=O)Nc2ccc(C[C@@H](CO)NC[C@H](O)COc3ccccc3)cc2)c1 | – |
| 1.1 nM | 12 nM | COc1ccccc1NC(=O)Nc1ccc(C[C@@H](CO)NC[C@H](O)COc2ccccc2)cc1 | – |
| 0.5 nM | 20 nM | O=C(Nc1ccccc1)Nc1ccc(C[C@@H](CO)NC[C@H](O)COc2ccccc2)cc1 | Cmax [3]: 4.2 ng/mL; half-life [4]: 8.1 h; bioavailability [5]: 1.1%; clearance [6]: 142 mL/min/kg; Cmax [7]: 52.6 ng/mL; Selectivity [8]: > 200; AUC [9]: 4.2 ng·h/mL; AUC [10]: 140 ng·h/mL; EC50 [11]: > 100 nM; T1/2 [12]: 1.3 h; bioavailability [13]: 20.3%; clearance [14]: 24.2 mL/min/kg |
